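Briefly, cells in 96-well plates were exposed to five compound concentrations for 48 h, and endpoints were estimated by linear interpolation. Here, GI50 denotes the concentration required for 50% inhibition of growth. Definition used: TGI = concentration required for complete inhibition of growth.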
What was measured:
Experiment in all cases: NCI anticancer screen, dose series, 48 h
[1] = tested on: 786-0 renal
[2] = tested on: A498 renal
[3] = tested on: A549 NSCLC
[4] = tested on: ACHN renal
[5] = tested on: BT-549 breast
[6] = tested on: COLO 205 colon
[7] = tested on: DU-145 prostate
[8] = tested on: EKVX NSCLC
[9] = tested on: HCC-2998 colon
[10] = tested on: HCT-15 colon
[11] = tested on: HOP-62 NSCLC
[12] = tested on: HS 578T breast
[13] = tested on: HT29 colon
[14] = tested on: IGROV1 ovarian
[15] = tested on: KM12 colon
[16] = tested on: LOX IMVI melanoma
[17] = tested on: M14 melanoma
[18] = tested on: MALME-3M melanoma
[19] = tested on: MCF7 breast
[20] = tested on: MDA-MB-231 breast
[21] = tested on: MDA-MB-435
[22] = tested on: NCI-H226 lung
[23] = tested on: NCI-H23 lung
[24] = tested on: NCI-H460 lung
[25] = tested on: NCI-H522 lung
[26] = tested on: NCI/ADR-RES ovarian
[27] = tested on: OVCAR-3 ovarian
[28] = tested on: OVCAR-4 ovarian
[29] = tested on: OVCAR-5 ovarian
[30] = tested on: OVCAR-8 ovarian
[31] = tested on: PC-3 prostate
[32] = tested on: RPMI-8226 leukemia
[33] = tested on: RXF 393 renal
[34] = tested on: SF-268 CNS
[35] = tested on: SF-295 CNS
[36] = tested on: SF-539 CNS
[37] = tested on: SK-MEL-2 melanoma
[38] = tested on: SK-MEL-28 melanoma
[39] = tested on: SK-MEL-5 melanoma
[40] = tested on: SK-OV-3 ovarian
[41] = tested on: SN12C renal
[42] = tested on: SNB-19 CNS
[43] = tested on: SNB-75 CNS
[44] = tested on: SR leukemia
[45] = tested on: SW-620 colon
[46] = tested on: T-47D breast
[47] = tested on: TK-10 renal
[48] = tested on: U251 CNS
[49] = tested on: UACC-62 melanoma
[50] = tested on: UO-31 renal
[51] = tested on: CAKI-1 renal
[52] = tested on: CCRF-CEM leukemia
[53] = tested on: HCT-116 colon
[54] = tested on: HL-60(TB) leukemia
[55] = tested on: HOP-92 NSCLC
[56] = tested on: K-562 leukemia
[57] = tested on: MOLT-4 leukemia
[58] = tested on: UACC-257 melanoma

SMILES: Cc1cc2c(c(S(=O)(=O)c3ccc(Cl)cc3[N+](=O)[O-])c1)NCCC2
- TGI [1]: > 100 µM
- TGI [2]: > 100 µM
- TGI [3]: > 100 µM
- TGI [4]: > 100 µM
- TGI [5]: > 100 µM
- TGI [6]: > 100 µM
- TGI [7]: > 100 µM
- TGI [8]: > 100 µM
- TGI [9]: > 100 µM
- TGI [10]: > 100 µM
- TGI [11]: > 100 µM
- TGI [12]: > 100 µM
- TGI [13]: > 100 µM
- TGI [14]: > 100 µM
- TGI [15]: > 100 µM
- TGI [16]: > 100 µM
- TGI [17]: > 100 µM
- TGI [18]: > 100 µM
- TGI [19]: > 100 µM
- TGI [20]: > 100 µM
- TGI [21]: > 100 µM
- TGI [22]: > 100 µM
- TGI [23]: > 100 µM
- TGI [24]: > 100 µM
- TGI [25]: > 100 µM
- TGI [26]: > 100 µM
- TGI [27]: > 100 µM
- TGI [28]: > 100 µM
- TGI [29]: > 100 µM
- TGI [30]: > 100 µM
- TGI [31]: > 100 µM
- TGI [32]: > 100 µM
- TGI [33]: > 100 µM
- TGI [34]: > 100 µM
- TGI [35]: > 100 µM
- TGI [36]: > 100 µM
- TGI [37]: > 100 µM
- TGI [38]: > 100 µM
- TGI [39]: > 100 µM
- TGI [40]: > 100 µM
- TGI [41]: > 100 µM
- TGI [42]: > 100 µM
- TGI [43]: > 100 µM
- TGI [44]: > 100 µM
- TGI [45]: > 100 µM
- TGI [46]: > 100 µM
- TGI [47]: > 100 µM
- TGI [48]: > 100 µM
- TGI [49]: > 100 µM
- TGI [50]: > 100 µM

SMILES: CSc1nc(-c2cc3ccccc3o2)cc(-c2ccc(Cl)cc2)c1C#N
- GI50 [1]: 7.36 µM
- TGI [1]: 76.8 µM
- GI50 [2]: 27 µM
- TGI [2]: > 100 µM
- GI50 [3]: 4.48 µM
- TGI [3]: > 100 µM
- GI50 [4]: 3.03 µM
- TGI [4]: 67.7 µM
- GI50 [5]: 23.8 µM
- TGI [5]: 75.7 µM
- GI50 [51]: 5.28 µM
- TGI [51]: > 73.4 µM
- GI50 [52]: > 100 µM
- TGI [52]: > 100 µM
- GI50 [7]: 3.87 µM
- TGI [7]: > 100 µM
- GI50 [8]: 0.918 µM
- TGI [8]: > 100 µM
- GI50 [53]: 5.11 µM
- TGI [53]: > 100 µM
- GI50 [54]: > 100 µM
- TGI [54]: > 100 µM
- GI50 [11]: 12.7 µM
- TGI [11]: > 79.6 µM
- GI50 [55]: 3.4 µM
- TGI [55]: 15.2 µM
- GI50 [12]: 22.2 µM
- TGI [12]: > 64.3 µM
- GI50 [14]: 0.706 µM
- TGI [14]: 13.4 µM
- GI50 [56]: > 100 µM
- TGI [56]: > 100 µM
- GI50 [15]: > 100 µM
- TGI [15]: > 100 µM
- GI50 [16]: 9.53 µM
- TGI [16]: > 100 µM
- GI50 [17]: 45.5 µM
- TGI [17]: > 100 µM
- GI50 [18]: 20.5 µM
- TGI [18]: > 100 µM
- GI50 [19]: 0.352 µM
- TGI [19]: > 100 µM
- GI50 [20]: 3.58 µM
- TGI [20]: 50 µM
- GI50 [21]: > 100 µM
- TGI [21]: > 100 µM
- GI50 [57]: > 85 µM
- TGI [57]: > 100 µM
- GI50 [22]: 6.28 µM
- TGI [22]: > 100 µM
- GI50 [23]: 9.24 µM
- TGI [23]: > 100 µM
- GI50 [25]: 8.67 µM
- TGI [25]: > 100 µM
- GI50 [26]: 44.9 µM
- TGI [26]: > 100 µM
- GI50 [27]: 2.58 µM
- TGI [27]: > 24.2 µM
- GI50 [28]: > 100 µM
- TGI [28]: > 100 µM
- GI50 [29]: > 84.6 µM
- TGI [29]: > 100 µM
- GI50 [30]: 3.57 µM
- TGI [30]: > 100 µM
- GI50 [31]: 8.82 µM
- TGI [31]: > 100 µM
- GI50 [32]: > 67.6 µM
- TGI [32]: > 100 µM
- GI50 [33]: 3.7 µM
- TGI [33]: 20.1 µM
- GI50 [34]: 18 µM
- TGI [34]: > 80.1 µM
- GI50 [35]: 6.17 µM
- TGI [35]: 37.8 µM
- GI50 [36]: 2.99 µM
- TGI [36]: 14.6 µM
- GI50 [38]: > 100 µM
- TGI [38]: > 100 µM
- GI50 [39]: > 100 µM
- TGI [39]: > 100 µM
- GI50 [40]: 5.29 µM
- TGI [40]: 56.8 µM
- GI50 [41]: 26.9 µM
- TGI [41]: > 100 µM
- GI50 [42]: 19.7 µM
- TGI [42]: > 76.5 µM
- GI50 [43]: 5.56 µM
- TGI [43]: 26.6 µM
- GI50 [44]: 28.6 µM
- TGI [44]: > 100 µM
- GI50 [45]: > 100 µM
- TGI [45]: > 100 µM
- GI50 [46]: 0.93 µM
- TGI [46]: > 100 µM
- GI50 [47]: 8.07 µM
- TGI [47]: 31.8 µM
- GI50 [48]: 3.76 µM
- TGI [48]: 28.4 µM
- GI50 [58]: > 100 µM
- TGI [58]: > 100 µM
- GI50 [49]: 5.03 µM
- TGI [49]: > 49.8 µM
- GI50 [50]: 1.73 µM
- TGI [50]: > 100 µM

Reference: PubChem BioAssay (NCI)
